According to patent US7897175B2, “Dosage forms comprising a CETP inhibitors and an HMG-CoA reductase inhibitor” (Bend Research, Inc., priority 2002, dated 2011):

How the values were obtained:
[1] = Aqueous solubility of torcetrapib; type: physicochemical; settings: aqueous solution (not specified further), water, about 22° C.
Protocol: The CETP inhibitor may be any compound capable of inhibiting the cholesteryl ester transfer protein. Solid amorphous dispersions are particularly useful for CETP inhibitors that have sufficiently low aqueous solubility, low bioavailability or slow rate of absorption such that it is desirable to increase their concentration in an aqueous environment of use. […] Many CETP inhibitors have even lower solubilities (some even less than 0.1 μg/mL), and require dramatic concentration enhancement to be sufficiently bioavailable upon oral dosing for effective plasma concentrations to be reached at practical doses.
CETP inhibitors, in particular torcetrapib, and methods for preparing such compounds are disclosed in detail in U.S. Pat. Nos. 6,197,786 and 6,313,142, in PCT Application Nos. WO 01/40190A1, WO 02/088085A2, and WO 02/088069A2, the disclosures of which are herein incorporated by reference. Torcetrapib has an unusually low solubility in aqueous environments such as the lumenal fluid of the human GI tract. The aqueous solubility of torceptrapib is less than about 0.04 μg/ml. Torcetrapib must be presented to the GI tract in a solubility-enhanced form in order to achieve a sufficient drug concentration in the GI tract in order to achieve sufficient absorption into the blood to elicit the desired therapeutic effect.

[2] = In vitro dissolution test using a microcentrifuge method (PBS); type: physicochemical; settings: for AUC90 (area under the aqueous concentration versus time curve after 90 minutes) / C1200 (concentration at 1200 minutes) / MDC90 (maximum concentration of torcetrapib in solution during the first 90 minutes): receptor solution PBS; for Torcetrapib Concentration / AUC: PBS pH 6.5, 37° C.; for Torcetrapib Concentration: 1000 μg/mL if all drug dissolved
Protocol: The spray-dried solid amorphous dispersion was evaluated in an in vitro dissolution test using a microcentrifuge method. In this test, 7.2 mg of the spray-dried solid amorphous dispersion was placed into a microcentrifuge tube. The tube was placed in a 37° C. sonicating bath, and 1.8 mL phosphate buffered saline (PBS) at pH 6.5 and 290 mOsm/kg was added, resulting in a torcetrapib concentration of 1000 μg/mL if all of the drug had dissolved. The sample was quickly mixed using a vortex mixer for about 60 seconds. The sample was centrifuged at 13,000 G at 37° C. for 1 minute. The resulting supernatant solution was then sampled and diluted 1:6 (by volume) with methanol and then analyzed by high-performance liquid chromatography (HPLC). The contents of the tube was mixed on the vortex mixer and allowed to stand undisturbed at 37° C. until the next sample was taken. Samples were collected at 4, 10, 20, 40, 90, and 1200 minutes. The concentrations of drug obtained in these samples are shown in Table 1, which represent the average of duplicate tests.
As a control, an in vitro dissolution test was performed using the procedures described above except that 1.8 mg of crystalline drug was used.
The spray-dried solid amorphous dispersion was evaluated in an in vitro dissolution test using a microcentrifuge method. In this test, 4.5 mg of the spray -dried solid amorphous dispersion was placed into a microcentrifuge tube. The tube was placed in a 37° C. sonicating bath, and 1.8 mL phosphate buffered saline (PBS) at ph 6.5 and 290 mOsm/kg was added, resulting in a torcetrapib concentration of 1000 μg/mL if all of the drug dissolved. The sample was quickly mixed using a vortex mixer for about 60 seconds. The sample was centrifuged at 13,000 G at 37° C. for 1 minute. The resilting superatant solution was then sampled and diluted 1:6 (by volume) with methanol and then analyzed by high-performance liquid chromatography (HPLC). The contents of the tube was mixed on the vortex mixer and allowed to stand undisturbed at 37° C. until the next sample was taken. Samples were collected at 4, 10, 20, 40, 90, and 1200 minutes. The concentrations of drug obtained in these samples are shown in Table 9, which represent the average of duplicate tests. The results using crystalline drug are included in Table 9 for […]

[3] = Example 1 test (dispersion 25 wt % torcetrapib)
[4] = Example 12 test (dispersion 40 wt % torcetrapib, HPMCAS-HG)
[5] = time 0 min, Example 1 test (dispersion 25 wt % torcetrapib, HPMCAS-MG)
[6] = time 0 min, Example 12 test (dispersion 40 wt % torcetrapib, HPMCAS-HG)
[7] = time 4 min, Example 1 test (dispersion 25 wt % torcetrapib, HPMCAS-MG)
[8] = time 4 min, Example 12 test (dispersion 40 wt % torcetrapib, HPMCAS-HG)
[9] = time 10 min, Example 1 test (dispersion 25 wt % torcetrapib, HPMCAS-MG)
[10] = time 10 min, Example 12 test (dispersion 40 wt % torcetrapib, HPMCAS-HG)
[11] = time 20 min, Example 1 test (dispersion 25 wt % torcetrapib, HPMCAS-MG)
[12] = time 20 min, Example 12 test (dispersion 40 wt % torcetrapib, HPMCAS-HG)
[13] = time 40 min, Example 1 test (dispersion 25 wt % torcetrapib, HPMCAS-MG)
[14] = time 40 min, Example 12 test (dispersion 40 wt % torcetrapib, HPMCAS-HG)
[15] = time 90 min, Example 1 test (dispersion 25 wt % torcetrapib, HPMCAS-MG)
[16] = time 90 min, Example 12 test (dispersion 40 wt % torcetrapib, HPMCAS-HG)
[17] = time 1200 min, Example 1 test (dispersion 25 wt % torcetrapib, HPMCAS-MG)
[18] = time 1200 min, Example 12 test (dispersion 40 wt % torcetrapib, HPMCAS-HG)

## CCOC(=O)N1c2ccc(C(F)(F)F)cc2[C@@H](N(Cc2cc(C(F)(F)F)cc(C(F)(F)F)c2)C(=O)OC)C[C@H]1CC [Crystalline Drug, [2R,4S]-4-[(3,5-bis-trifluoromethyl-benzyl)-methoxycarbonyl-amino]-2-ethyl-6-trifluoromethyl-3,4-dihydro-2H-quinoline-1-carboxylic acid ethyl ester]
[1]
  solubility: < 0.04 µg/mL
[2]; [3]
  AUC90 (area under the aqueous concentration versus time curve after 90 minutes): <88 min-μg/mL
  C1200 (concentration at 1200 minutes): <1 µg/mL
  MDC90 (maximum concentration of torcetrapib in solution during the first 90 minutes): <1 µg/mL
[2]; [4]
  AUC90 (area under the aqueous concentration versus time curve after 90 minutes): <88 min-μg/mL
  C1200 (concentration at 1200 minutes): <1 µg/mL
  MDC90 (maximum concentration of torcetrapib in solution during the first 90 minutes): <1 µg/mL
[2]; [5]
  Torcetrapib Concentration: 0 µg/mL
  AUC: 0 min-μg/mL
[2]; [6]
  Torcetrapib Concentration: 0 µg/mL
  AUC: 0 min-μg/mL
[2]; [7]
  Torcetrapib Concentration: <1 µg/mL
  AUC: <2 min-μg/mL
[2]; [8]
  Torcetrapib Concentration: <1 µg/mL
  AUC: <2 min-μg/mL
[2]; [9]
  Torcetrapib Concentration: <1 µg/mL
  AUC: <8 min-μg/mL
[2]; [10]
  Torcetrapib Concentration: <1 µg/mL
  AUC: <8 min-μg/mL
[2]; [11]
  Torcetrapib Concentration: <1 µg/mL
  AUC: <18 min-μg/mL
[2]; [12]
  Torcetrapib Concentration: <1 µg/mL
  AUC: <18 min-μg/mL
[2]; [13]
  Torcetrapib Concentration: <1 µg/mL
  AUC: <38 min-μg/mL
[2]; [14]
  Torcetrapib Concentration: <1 µg/mL
  AUC: <38 min-μg/mL
[2]; [15]
  Torcetrapib Concentration: <1 µg/mL
  AUC: <88 min-μg/mL
[2]; [16]
  Torcetrapib Concentration: <1 µg/mL
  AUC: <88 min-μg/mL
[2]; [17]
  Torcetrapib Concentration: <1 µg/mL
  AUC: <1,200 min-μg/mL
[2]; [18]
  Torcetrapib Concentration: <1 µg/mL
  AUC: <1,200 min-μg/mL
